Measurements as given in PMC3462168 (Analytical biochemistry, 2010).
Peptide text beside a SMILES is read from it. * marks the point of attachment. 5FAM = O=C1OC2(c3ccc(O)cc3Oc3cc(O)ccc32)c2ccc(C(=O)*)cc21

Key:
[1] = biological target: T1, hRSV F protein 5-Helix Bundle (5HB) (Human respiratory syncytial virus A, UniProt P03420); assay: Competitive FP binding assay; parameters: species or system hRSV strain A2; settings: for inhibition at 100 µM: read-out: % Inhibition (100 µM)
hRSV = assay: Antiviral activity of C20; format: cell-based; settings: read-out: EC50, antiviral activity; methods only in supporting information
[2] = biological target: T1, hRSV F protein 5-Helix Bundle (5HB); assay: ELISA of Fl-C35 binding to 5HB; parameters: species or system hRSV strain A2; settings: data in supporting information
EBV gH/gL complex [3] = settings: 5 nM Fl-C35, increasing amount of EBV gH/gL
hRSV 5HB = assay: FP specificity cross-test: EBV gp42 FITC-30mer against hRSV 5HB; format: binding, hRSV strain A2; settings: 5 nM FITC-30mer, wide range of 5HB concentrations
EBV gH/gL complex [4] = settings: read-out: IC50 of binding to EBV gH/gL protein; cited from earlier work

Compound: CC[C@H](C)[C@H](N)C(=O)N[C@@H](CO)C(=O)N[C@@H](CCC(N)=O)C(=O)N[C@H](C(=O)N[C@@H](CC(N)=O)C(=O)N[C@@H](CCC(=O)O)C(=O)N[C@@H](CCCCN)C(=O)N[C@H](C(=O)N[C@@H](CC(N)=O)C(=O)N[C@@H](CCC(N)=O)C(=O)N[C@@H](CO)C(=O)N[C@@H](CC(C)C)C(=O)N[C@@H](C)C(=O)N[C@@H](Cc1ccccc1)C(=O)N[C@H](C(=O)N[C@@H](CCCNC(=N)N)C(=O)N[C@@H](CCCCN)C(=O)N[C@@H](CO)C(=O)N[C@@H](CC(=O)O)C(=O)N[C@@H](CCC(=O)O)C(=O)O)[C@@H](C)CC)[C@@H](C)CC)C(C)C [C20] (H-ISQVNEKINQSLAFIRKSDE-OH)
- inhibition at 100 µM [1]: > 90%
- EC50 (hRSV): > 12500 nM

Compound: CC[C@H](C)[C@H](NC(=O)[C@H](Cc1ccccc1)NC(=O)[C@H](C)NC(=O)[C@H](CC(C)C)NC(=O)[C@H](CO)NC(=O)[C@H](CCC(N)=O)NC(=O)[C@H](CC(N)=O)NC(=O)[C@@H](NC(=O)[C@H](CCCCN)NC(=O)[C@H](CCC(=O)O)NC(=O)[C@H](CC(N)=O)NC(=O)[C@@H](NC(=O)[C@H](CCC(N)=O)NC(=O)[C@H](CO)NC(=O)[C@@H](NC(=O)[C@H](CO)NC(=O)[C@H](C)NC(=O)[C@H](CC(=O)O)NC(=O)[C@H](Cc1ccccc1)NC(=O)[C@H](CCC(=O)O)NC(=O)[C@H](CC(=O)O)NC(=O)[C@H](CO)NC(=O)[C@@H]1CCCN1C(=O)[C@H](Cc1ccccc1)NC(=O)[C@@H](N)C(C)C)[C@@H](C)CC)C(C)C)[C@@H](C)CC)C(=O)N[C@@H](CCCNC(=N)N)C(=O)N[C@@H](CCCCN)C(=O)N[C@@H](CO)C(=O)N[C@@H](CC(=O)O)C(=O)N[C@@H](CCC(=O)O)C(=O)O [C30] (H-VFPSDEFDASISQVNEKINQSLAFIRKSDE-OH)
- inhibition at 100 µM [1]: 100%

Compound: CC[C@H](C)[C@H](NC(=O)[C@H](Cc1ccccc1)NC(=O)[C@H](C)NC(=O)[C@H](CC(C)C)NC(=O)[C@H](CO)NC(=O)[C@H](CCC(N)=O)NC(=O)[C@H](CC(N)=O)NC(=O)[C@@H](NC(=O)[C@H](CCCCN)NC(=O)[C@H](CCC(=O)O)NC(=O)[C@H](CC(N)=O)NC(=O)[C@@H](NC(=O)[C@H](CCC(N)=O)NC(=O)[C@H](CO)NC(=O)[C@@H](NC(=O)[C@H](CO)NC(=O)[C@H](C)NC(=O)[C@H](CC(=O)O)NC(=O)[C@H](Cc1ccccc1)NC(=O)[C@H](CCC(=O)O)NC(=O)[C@H](CC(=O)O)NC(=O)[C@H](CO)NC(=O)[C@@H]1CCCN1C(=O)[C@H](Cc1ccccc1)NC(=O)[C@@H](NC(=O)[C@H](CC(C)C)NC(=O)[C@@H]1CCCN1C(=O)[C@H](CC(=O)O)NC(=O)[C@@H](N)Cc1ccc(O)cc1)C(C)C)[C@@H](C)CC)C(C)C)[C@@H](C)CC)C(=O)N[C@@H](CCCNC(=N)N)C(=O)N[C@@H](CCCCN)C(=O)N[C@@H](CO)C(=O)N[C@@H](CC(=O)O)C(=O)N[C@@H](CCC(=O)O)C(=O)N[C@@H](CC(C)C)C(=O)O [C35] (H-YDPLVFPSDEFDASISQVNEKINQSLAFIRKSDEL-OH)
- IC50 [1]: 38.5 nM
- inhibition at 100 µM [1]: 100%

Compound: CC[C@H](C)[C@H](NC(=O)[C@H](Cc1ccccc1)NC(=O)[C@H](C)NC(=O)[C@H](CC(C)C)NC(=O)[C@H](CO)NC(=O)[C@H](CCC(N)=O)NC(=O)[C@H](CC(N)=O)NC(=O)[C@@H](NC(=O)[C@H](CCCCN)NC(=O)[C@H](CCC(=O)O)NC(=O)[C@H](CC(N)=O)NC(=O)[C@@H](NC(=O)[C@H](CCC(N)=O)NC(=O)[C@H](CO)NC(=O)[C@@H](NC(=O)[C@H](CO)NC(=O)[C@H](C)NC(=O)[C@H](CC(=O)O)NC(=O)[C@H](Cc1ccccc1)NC(=O)[C@H](CCC(=O)O)NC(=O)[C@H](CC(=O)O)NC(=O)[C@H](CO)NC(=O)[C@@H]1CCCN1C(=O)[C@H](Cc1ccccc1)NC(=O)[C@@H](NC(=O)[C@H](CC(C)C)NC(=O)[C@@H]1CCCN1C(=O)[C@H](CC(=O)O)NC(=O)[C@H](Cc1ccc(O)cc1)NC(=O)c1ccc2c(c1)C(=O)OC21c2ccc(O)cc2Oc2cc(O)ccc21)C(C)C)[C@@H](C)CC)C(C)C)[C@@H](C)CC)C(=O)N[C@@H](CCCNC(=N)N)C(=O)N[C@@H](CCCCN)C(=O)N[C@@H](CO)C(=O)N[C@@H](CC(=O)O)C(=O)N[C@@H](CCC(=O)O)C(=O)N[C@@H](CC(C)C)C(=O)O [Fl-C35] (5FAM-YDPLVFPSDEFDASISQVNEKINQSLAFIRKSDEL-OH)
- Specific binding of Fl-C35 to 5HB in ELISA [2]: confirmed
- Binding of Fl-C35 to EBV gH/gL complex (negative control) (EBV gH/gL complex [3]): no evidence of nonspecific binding

Compound: KPNVEVWPVAAPPPVAEQEYGDKEVKLPHW [FITC-30mer]
- Binding of EBV gp42 FITC-30mer to hRSV 5HB (negative control) (hRSV 5HB): no evidence of nonspecific binding
- IC50 (EBV gH/gL complex [4]): 1.3 nM
